{"source": "patent US20260130879A1", "about": "(IMMUNIC AG, priority 2023, published 2026)", "key": {"[1]": {"system": "neurofilament light polypeptide (NFL)", "assay": "Serum neurofilament (NFL) in Phase 2 study in relapsing-remitting multiple sclerosis, patients with no relapses", "assay_type": "in vivo, human", "conditions": "after 24 weeks, RRMS patients with no relapses", "description": "[…]. The study was carried out in accordance with current ICH E6 (Good Clinical Practice) guidelines and the EMA Reflection paper for laboratories that perform the analysis or evaluation of clinical trial samples (EMA/INS/GCP/532137/2010, 28 Feb. 2012). The sample analysis was performed on a Meso QuickPlex SQ 120 analyzer by an ECLIA technique using a validated method.\nIn order to confirm an effect of IMU-838 on the plasma levels of NFL the subgroup of patients with no relapses was investigated"}, "[2]": {"system": "BDNF", "assay": "Induction of BDNF in LPS-stimulated human PBMCs (ELISA)", "assay_type": "cell-based", "conditions": "3 μM, supernatant 14 h"}, "[3]": {"system": "Nurr1 target genes", "assay": "Microarray gene expression in stimulated human PBMCs", "assay_type": "cell-based", "conditions": "anti-CD3/anti-CD28 stimulated human PBMCs, 20 h", "description": "Human PBMC isolation was performed similarly as described above. […] Four biological replicates were used per condition. Cells were detached from the cell culture plates by using MACS buffer, were washed with PBS and then resuspended in RLT buffer for subsequent RNA isolation with RNAeasy Mini Kit (Quiagen). 100 ng total RNA per sample were introduced into an RT-IVT reaction. Prior to RT-IVT, the total RNA samples were spiked with in-vitro synthesized polyadenylated transcripts (One-Color RNA Spike-In Mix, Agilent Technologies), which serves as an internal labeling control for linearity, sensitivity and accuracy. The spiked total RNA was reverse transcribed into cDNA and then converted into labeled cRNA by in vitro transcription (Low Input Quick-Amp Labeling Kit One-Color, Agilent Technologies) incorporating Cyanine-3-CTP. All steps were carried out according to the manufacturer's instructions. […] Afterwards, microarrays were washed with increasing stringency using Gene Expression Wash Buffers (Agilent Technologies) followed by drying with acetonitrile (SIGMA). […] Differential gene expression was identified by applying appropriate biostatistics to the data set. GeneSpring GX11 analysis software was used to normalize and analyze the raw data. […] The induced and repressed genes were further characterized for involvement in functional categories (biological processes, molecular functions, cellular components, protein classes and pathways) based on the PANTHER database."}, "[4]": {"system": "vesicular amino acid transporter 2 (VMAT2)", "assay": "Nurr1 regulated gene expression of VMAT2 in T98G cells (qPCR)", "assay_type": "cell-based", "conditions": "16 h", "description": "(§1) . After 16 h of incubation the medium was removed, cells were washed with phosphate buffered saline (PBS) and after full aspiration of residual liquids immediately frozen at −80° C., until further procession. Total RNA was isolated using E.Z.N.A.® Total RNA Kit I (Omega Bio-tek. Norcross. USA) following the manufacturer's instructions. RNA concentration and purity was assessed using a NanoDrop™ One UV/VIS spectrophotometer (Thermo Fisher Scientific. Waltham. USA) at 260/280 nm. Right before reverse transcription (RT), RNA was linearized at a concentration of 133 ng/μL at 65° C., for 10 min and then immediately incubated on ice for at least 1 min. Reverse transcription was performed using 2 μg total RNA, 20 U Recombinant RNasin® Ribonuclease Inhibitor (Promega, Mannheim, Germany), 100 U SuperScript IV Reverse Transcriptase including 5× First Strand Buffer and 0.1 M dithiothreitol (Thermo Fisher Scientific, Waltham, USA), 3.75 ng linear acrylamide. […] Quantitative polymerase chain reaction (qPCR) was conducted using an Applied Biosystems™ QuantStudio 1 (Waltham, USA) and a SYBR green based detection method. […] PCR product specificity was evaluated using a melting curve analysis ranging from 65 to 95° C. […]"}, "[5]": {"system": "tyrosine hydroxylase (TH)", "assay": "Nurr1 regulated gene expression of TH in T98G cells (qPCR)", "assay_type": "cell-based", "conditions": "16 h", "description": "as §1"}, "[6]": {"system": "RRMS patients", "conditions": "12 weeks or 24 weeks; cited from earlier work"}, "[7]": {"system": "brain lesions", "conditions": "animal model of RRMS; cited from earlier work"}, "[8]": {"system": "NFL", "conditions": "EXPAND, 12-month; cited from earlier work"}, "[9]": {"molecular_target": "human Nurr1 (Homo sapiens, UniProt P43354)", "sequence (P43354 360-595 limits assumed)": "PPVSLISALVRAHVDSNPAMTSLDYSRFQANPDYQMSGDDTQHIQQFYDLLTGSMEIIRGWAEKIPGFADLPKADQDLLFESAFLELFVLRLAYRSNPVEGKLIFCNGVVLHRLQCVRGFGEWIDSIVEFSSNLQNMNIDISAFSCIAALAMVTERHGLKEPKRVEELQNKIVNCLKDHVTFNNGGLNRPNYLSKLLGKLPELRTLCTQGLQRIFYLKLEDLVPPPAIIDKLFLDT", "assay": "Hybrid Gal4-Nurr1 reporter gene assay in HEK293T cells", "experimental": "Nurr1 modulation was determined in a Gal4 hybrid reporter gene assays in HEK293T cells (German Collection of Microorganisms and Cell Culture GmbH, DSMZ) using pFR-Luc (Stratagene, La Jolla, CA, USA; reporter), pRL-SV40 (Promega, Madison, WI, USA: internal control) and pFA-CMV-hNurr1-LBD, coding for the hinge region and ligand binding domain of the canonical isoform of human Nurr1. Cells were cultured in Dulbecco's modified Eagle's medium (DMEM), high glucose supplemented with 10% fetal calf serum (FCS), sodium pyruvate (1 mM), penicillin (100 U/mL), and streptomycin (100 μg/mL) at 37° C., and 5% CO2 and seeded in 96-well plates (3×10+ cells/well). […] Firefly luminescence was divided by Renilla luminescence and multiplied by 1000 resulting in relative light units (RLU) to normalize for transfection efficiency and cell growth. Fold activation was obtained by dividing the mean RLU of test compound by the mean RLU of the untreated control. All samples were tested in at least three biologically independent experiments in duplicates. For dose-response curve fitting and calculation of EC50 values, the equation “[Agonist] versus response (three parameters)” was used in GraphPad Prism (version 7.00, GraphPad Software, La Jolla, CA, USA).\nSimilarly as described in Part A, the Nurr1 modulation was determined in a Gal4 hybrid reporter gene assay at a fixed concentration of 3 μM."}, "[10]": {"molecular_target": "T1, hDHODH (Homo sapiens, UniProt Q02127)", "T1 construct": "measured using an N-terminally truncated recombinant hDHODH enzyme", "T1 sequence (Q02127 29-395)": "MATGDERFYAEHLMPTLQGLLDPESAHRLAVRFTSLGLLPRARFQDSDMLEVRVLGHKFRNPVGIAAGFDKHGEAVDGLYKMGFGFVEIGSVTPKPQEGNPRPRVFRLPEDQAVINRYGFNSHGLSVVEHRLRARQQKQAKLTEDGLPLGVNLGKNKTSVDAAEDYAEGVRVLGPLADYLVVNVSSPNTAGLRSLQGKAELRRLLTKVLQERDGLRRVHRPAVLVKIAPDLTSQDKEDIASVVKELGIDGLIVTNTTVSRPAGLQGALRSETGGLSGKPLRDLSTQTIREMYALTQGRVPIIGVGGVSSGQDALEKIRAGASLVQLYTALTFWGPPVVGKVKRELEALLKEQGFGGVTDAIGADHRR", "assay": "in vitro inhibition of hDHODH", "assay_type": "biochemical", "description": "The in vitro inhibition of hDHODH was measured using an N-terminally truncated recombinant hDHODH enzyme. Briefly, the hDHODH concentration was adjusted in a way that an average slope of approximately 0.2 AU/min served as the positive control (e.g., without inhibitor). The assay mixture contained 60 μM 2,6-dichloroindophenol, 50 μM decylubiquinone and 100 μM dihydroorotate. The hDHODH enzyme with or without at least six different concentrations of the compounds was added and measurements were performed in 50 mM TrisHCl, 150 mM KCl and 0.1% Triton X-100 at pH 8.0 and at 30° C. The reaction was started by adding dihydroorotate and measuring the absorption at 600 nm for 2 min. For the determination of the IC50 values, each data point was recorded in triplicate."}, "[11]": {"system": "SH-SY5Y", "assay": "Apoptosis assay in SH-SY5Y cells (TNFα and CHX)", "assay_type": "cell-based, human", "conditions": "pretreated 1 h, TNFα 50 ng/ml and CHX 20 μg/mL for 6 hours", "description": "(§2) Cell viability was assessed by flow cytometry after staining the cells with Annexin V and a live/dead dye. Alive cells are defined as […]."}, "[12]": {"system": "N2A", "assay": "Apoptosis assay in N2A cells (TNFα and CHX)", "assay_type": "cell-based, murine", "conditions": "pretreated 1 h, TNFα 50 ng/ml and CHX 20 μg/mL for 6 hours", "description": "as §2"}}, "note": "Entries after “also recorded” stand apart in the source; their conditions may differ. Structures can show the parent of a compound that is named as a salt.", "data": [{"smiles": "COc1cccc(-c2ccc(NC(=O)C3=C(C(=O)O)CCC3)c(F)c2)c1", "note": "[IMU-838, vidofludimus calcium]", "values": [{"measurement": "mean change of NFL (reduction)", "setting": "[1]", "value": 18, "unit": "%"}, {"measurement": "BDNF production", "setting": "[2]", "value": "BDNF is produced"}, {"measurement": "Upregulation A2M", "setting": "[3]", "value": 1.6}, {"measurement": "Upregulation BHLHE41", "setting": "[3]", "value": 1.5}, {"measurement": "Upregulation CFB", "setting": "[3]", "value": 2.4}, {"measurement": "Upregulation HSD11B1", "setting": "[3]", "value": 2.5}, {"measurement": "Upregulation LTA", "setting": "[3]", "value": 2.0}, {"measurement": "Upregulation MARCO", "setting": "[3]", "value": 2.6}, {"measurement": "Upregulation NCAM", "setting": "[3]", "value": 1.6}]}, {"smiles": "COc1cccc(-c2ccc(NC(=O)C3=C(C(=O)O)CCC3)c(F)c2)c1", "note": "[Example 1, vidofludimus]", "values": [{"measurement": "gene expression on vesicular amino acid transporter 2 (VMAT2)", "setting": "[4]", "value": "dose-dependent gene expression"}, {"measurement": "gene expression on tyrosine hydroxylase (TH)", "setting": "[5]", "value": "dose-dependent gene expression"}]}, {"smiles": "COc1cccc(-c2ccc(NC(=O)C3=C(C(=O)O)CCC3)c(F)c2)c1", "note": "[vidofludimus calcium, vidofludimus calcium salt dihydrate]", "values": [{"measurement": "rate of confirmed disability worsening over time vs placebo", "setting": "[6]", "value": "lower rate of confirmed disability worsening"}, {"measurement": "unique active brain lesions vs placebo", "setting": "[6]", "value": "significantly fewer unique active brain lesions"}, {"measurement": "reduction in brain lesions vs control treatment", "setting": "[7]", "value": "greater reduction in brain lesions"}]}, {"smiles": "CCc1cc(/C(C)=N/OCc2ccc(C3CCCCC3)c(C(F)(F)F)c2)ccc1CN1CC(C(=O)O)C1", "note": "[siponimod]", "values": [{"measurement": "effect on neurofilament, non-active SPMS", "setting": "[8]", "value": "little or no effect on neurofilament"}]}, {"smiles": "C/C(O)=C(\\C#N)C(=O)Nc1ccc(C(F)(F)F)cc1", "note": "[teriflunomide, reference compound]", "values": [{"measurement": "BDNF production", "setting": "[2]", "value": "no effect"}]}, {"smiles": "[2H]C([2H])([2H])Oc1cccc(C23CCC(NC(=O)C4=C(C(=O)O)CCC4)(CC2)CC3)c1", "note": "[reference compound]", "values": [{"measurement": "EC50", "setting": "[9]", "value": "> 10", "unit": "µM"}, {"measurement": "IC50", "setting": "[10]", "value": "> 50", "unit": "µM"}]}, {"smiles": "[2H]C([2H])([2H])Oc1cccc(-c2c(F)c(F)c(NC(=O)c3c(C(=O)O)sc(C)c3C)c(F)c2F)c1", "note": "[6/13]", "values": [{"measurement": "EC50", "setting": "[9]", "value": "< 0.1", "unit": "µM"}, {"measurement": "Nurr1 agonism max. fold activation (range)", "setting": "[9]", "value": "++ (++: ≥2-fold to <3-fold)"}, {"measurement": "IC50", "setting": "[10]", "value": "< 0.1", "unit": "µM"}]}, {"smiles": "C#CCOc1cccc(-c2ccc(NC(=O)c3cscc3C(=O)NCC)c(F)c2)c1", "note": "[6/58]", "values": [{"measurement": "EC50", "setting": "[9]", "value": "1 to 10", "unit": "µM"}, {"measurement": "Nurr1 agonism max. fold activation (range)", "setting": "[9]", "value": "+ (+: ≥1.3-fold to <2-fold)"}, {"measurement": "IC50", "setting": "[10]", "value": "> 10", "unit": "µM"}]}, {"smiles": "[2H]C([2H])([2H])Oc1cccc(-c2c(F)c(F)c(NC(=O)c3ccccc3C(=O)O)c(F)c2F)c1", "note": "[6/20]", "values": [{"measurement": "EC50", "setting": "[9]", "value": "< 0.1", "unit": "µM"}, {"measurement": "IC50", "setting": "[10]", "value": "< 0.1", "unit": "µM"}]}, {"smiles": "C#CCOc1cccc(-c2ccc(NC(=O)C3=C(C(=O)O)CCC3)c(F)c2)c1", "note": "[Example 3, 2-((3-Fluoro-3′-(prop-2-yn-1-yloxy)-[1,1′-biphenyl]-4-yl)carbamoyl)cyclopent-1-ene-1-carboxylic acid]", "values": [{"measurement": "induction of apoptosis, SH-SY5Y", "setting": "[11]", "value": "induction of apoptosis was reduced"}, {"measurement": "induction of apoptosis, N2A", "setting": "[12]", "value": "induction of apoptosis was reduced"}, {"measurement": "gene expression on vesicular amino acid transporter 2 (VMAT2)", "setting": "[4]", "value": "dose-dependent activation; also recorded: dose-dependent gene expression"}, {"measurement": "gene expression on tyrosine hydroxylase (TH)", "setting": "[5]", "value": "dose-dependent gene expression"}]}, {"smiles": "[2H]C(F)(F)Oc1cccc(-c2ccc(NC(=O)C3=C(C(=O)O)CCC3)c(F)c2)c1", "note": "[2/2]", "values": [{"measurement": "EC50", "setting": "[9]", "value": "0.1 to 1", "unit": "µM"}, {"measurement": "Nurr1 agonism max. fold activation (range)", "setting": "[9]", "value": "+++ (+++: ≥3-fold)"}, {"measurement": "IC50", "setting": "[10]", "value": "1 to 10", "unit": "µM"}]}]}
